Laboratory results published in patent EP0471612B1, “New steroids having an amide substituted group in the 11-beta position, their preparation, their use as medicines and pharmaceutical composition thereof” (ROUSSEL UCLAF, priority 1990, dated 1992).
Where two headings read alike, the source gives them in different places.

Tests used:
[1] = molecular target: T1, récepteur estrogène de l'utérus de souris (Mus musculus, UniProt P19785); assay: Relative binding affinity (ARL) for the estrogen receptor, mouse uterus cytosol, displacement of tritiated estradiol; conditions: ARL = 100 (CH)/(CX), estradiol = 100, head prints 0°C; for Récepteurs Oestrogène Temps d'incubation à 0°C 5H (affinité relative de liaison, ARL): incubation 5H (second time); for Récepteurs Oestrogène Temps d'incubation à 0°C 2H (affinité relative de liaison, ARL): incubation 2H
T1 construct: les utérus sont prélevés puis homogénéisés a 0°C; from tissue; host or cells: uterus of immature female mice (18-21 days), cytosol (105 000 g supernatant)
T1 sequence (P19785 1-599): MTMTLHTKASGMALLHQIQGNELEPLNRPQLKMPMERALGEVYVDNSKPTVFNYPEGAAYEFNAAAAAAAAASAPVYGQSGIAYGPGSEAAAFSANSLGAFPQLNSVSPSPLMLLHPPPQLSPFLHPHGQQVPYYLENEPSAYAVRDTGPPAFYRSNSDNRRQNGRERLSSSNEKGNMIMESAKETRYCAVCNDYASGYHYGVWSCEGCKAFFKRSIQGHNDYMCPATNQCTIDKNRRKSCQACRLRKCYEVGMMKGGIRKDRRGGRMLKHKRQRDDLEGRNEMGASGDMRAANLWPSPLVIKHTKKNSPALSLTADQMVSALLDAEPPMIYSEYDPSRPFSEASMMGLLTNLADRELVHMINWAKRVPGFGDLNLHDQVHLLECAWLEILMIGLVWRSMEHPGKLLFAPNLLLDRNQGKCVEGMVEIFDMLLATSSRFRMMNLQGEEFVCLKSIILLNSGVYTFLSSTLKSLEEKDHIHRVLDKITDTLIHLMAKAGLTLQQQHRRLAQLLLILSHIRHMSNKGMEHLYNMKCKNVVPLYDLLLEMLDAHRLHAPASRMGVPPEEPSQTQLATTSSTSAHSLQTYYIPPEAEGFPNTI
Experimental: Des souris femelles impubères âgées de 18 a 21 jours sont sacrifiées, les utérus sont prélevés puis homogénéisés a 0°C à l'aide d'un Potter teflon-verre dans une solution tamponnée TS (Tris 10 mM, saccharose 0,25 M, HCl pH 7,4 (1 g de tissu pour 25 ml de TS). L'homogénat est ensuite ultracentrifugé (105 000 g x 90 mn) à 0°C. Des aliquotes du surnageant ainsi obtenu, sont incubées a 0°C ou a 25°C pendant un temps (t) avec une concentration constante (T) d'estradiol tritié en présence de concentrations croissantes (0 - 1000.10^-9 M) soit d'estradiol froid, soit du produit froid a tester. La concentration d'estradiol tritié lié (B) est ensuite mesurée dans chaque incubat par la technique d'adsorption au charbon-dextran.
Le calcul de l'affinité relative de liaison (ARL) est identique pour tous les récepteurs.
On trace les 2 courbes suivantes : le pourcentage de l'hormone tritiée liée (B)/(T) [formula] en fonction du logarithme de la concentration de l'hormone de référence froide et (B)/(T) [formula] en fonction du logarithme de la concentration du produit froid testé.
On détermine la droite d'équation I50 = ((B)/(T)max +(B)/(T)min)/2. [formula] (B)/(T) [formula] max = Pourcentage de l'hormone tritiée liée pour une incubation de cette hormone tritiée à la concentration (T). (B)/(T) [formula] min = Pourcentage de l'hormone tritiée liée pour une incubation de cette hormone tritiée à la concentration (T) en présence d'un grand excès d'hormone froide (2500.10^-9M).
Les intersections de la droit I50 et des courbes permettent d'évaluer les concentrations de l'hormone de référence froide (CH) et du produit froid testé (CX) qui inhibent de 50 % la liaison de l'hormone tritiée sur le récepteur.
L'affinité relative de liaison (ARL) du produit testé est déterminée par l'équation ARL = 100((CH))/((CX)). [formula]

[2] = test system: cellules tumorales mammaires MCF-7; assay: Anti-proliferative activity on growth of MCF-7 mammary tumour cells (DNA assay with DABA); assay type: cell-based; conditions: Homo sapiens, MCF7, 144 h, read-out: CI50 (concentration qui inhibe de 50 % la croissance des cellules MCF7)
Experimental: Les lignées MCF-7 sont maintenues en culture en milieu SVF(1) à 37°C en atmosphère humide contenant 5 % CO2. Les cellules à subconfluence sont récoltées par trypsination (trypsine 0,05 %, EDTA 0,02 %) puis rincées par centrifugation douce. Un échantillon des cellules en suspension est compté sur cellule de Malassez.
Les cellules resuspendues dans le milieu SVF sont ensemencées à raison de 30.000 cellules par puits dans des plaques multipuits (24 puits de 2,5 cm^2). Vingt quatre heures après l'ensemencement (JO), le produit à tester est ajouté au milieu en solution éthanolique (concentration finale en éthanol : 0,1 %), à la concentration de 10^-12 à 10^-6M, les puits contrôles recevant la même concentration en éthanol. Les milieux sont renouvelés toutes les 48 heures. En fin d'expérience (J6), le milieu est aspiré et les cellules sont immédiatement fixées par 150 microlitres de méthanol afin de doser l'ADN.
L'activité anti-proliférative des produits est évaluée par leur capacité à inhiber l'augmentation d'ADN.
L'ADN est dosé par une méthode fluorimétrique utilisant le DABA (Acide 3,5 diaminobenzoïque) (2) : 150 microlitres de DABA sont ajoutés dans chaque puits; les plaques sont alors incubées 45 mn à 56°C, puis 2 ml d'HCl 1N sont ajoutés. La fluorescence est mesurée à l'aide d'un fluorimètre (longueur d'onde excitatrice : 408 nm, longueur d'onde d'émission : 510 nm).
La quantité d'ADN par puits est évaluée par rapport à une gamme étalon obtenue en traitant dans les mêmes conditions un standard d'ADN de thymus de veau.
La concentration en nm qui inhibe de 50 % la croissance des cellules MCF7 (CI50) a été déterminée de la manière indiquée ci-dessus : […]

[3] = MCF-7, product 10^-12 to 10^-6M, 6 days (J6), DNA measured

SMILES	Récepteurs Oestrogène Temps d'incubation à 0°C 5H (affinité relative de liaison, ARL) [1]	IC50 [2, 3] [nM]	Récepteurs Oestrogène Temps d'incubation à 0°C 2H (affinité relative de liaison, ARL) [1]	IC50 [2] [nM]	Récepteurs Oestrogène Temps d'incubation à 0°C 5H (affinité relative de liaison, ARL) ([1]; listed as exemple 14)
CCCCN(C)C(=S)COCCCCCOc1ccc([C@H]2C[C@]3(C)[C@@H](O)CC[C@H]3[C@@H]3CCc4cc(O)ccc4[C@H]32)cc1 [Exemple 1]	20	0.03	–	–	–
CCCCN(C)C(=S)CCCCCCCOc1ccc([C@H]2C[C@]3(C)[C@@H](O)CC[C@H]3[C@@H]3CCc4cc(O)ccc4[C@H]32)cc1 [Exemple 2, N-butyl-8-(4-(3,17béta-dihydroxy-estra-1,3,5(10)-trien-11béta-yl)phénoxy)-N-méthyl-octanethioamide]	16	0.035	–	–	–
CN(CC(F)(F)C(F)(F)C(F)(F)F)C(=O)CCCCCCCOc1ccc([C@H]2C[C@]3(C)[C@@H](O)CC[C@H]3[C@@H]3CCc4cc(O)ccc4[C@H]32)cc1 [Exemple 5, 8-(4-(3,17béta-dihydroxy-estra-1,3,5(10)-trien-11béta-yl)phénoxy)-N-(2,2,3,3,4,4,4-heptafluorobutyl)-N-méthyl-octanamide]	23	–	0	0.02	–
CCCCN(C)C(=O)COCCCCCCOc1ccc([C@H]2C[C@]3(C)[C@@H](O)CC[C@H]3[C@@H]3CCc4cc(O)ccc4[C@H]32)cc1 [Exemple 6]	29	0.007	3,3	–	–
CCCCN(C)C(=O)CSCCCCCc1ccc([C@H]2C[C@]3(C)[C@@H](O)CC[C@H]3[C@@H]3CCc4cc(O)ccc4[C@H]32)cc1 [Exemple 9, N-butyl-2-((5-(4-(3,17béta-dihydroxy-estra-1,3,5(10)-trien-11béta-yl)phényl)pentyl)thio)-N-méthyl-acétamide]	11,7	0.009	–	–	–
C#C[C@]1(O)CC[C@H]2[C@@H]3CCc4cc(O)ccc4[C@H]3[C@@H](CCCCCCCCOCC(=O)N(C)C(C)C)C[C@@]21C [Exemple 14, 2-((8-(3,17béta-dihydroxy19-nor-17alpha-pregna-1,3,5(10)-trien-20-yn-11béta-yl)octyl)oxy)-N-méthyl-N-(1-méthyléthyl)-acétamide]	47	0.015	2,8	–	affinité marquée
CCCCN(C)C(=S)CSCCCCCOc1ccc([C@H]2C[C@]3(C)[C@@H](O)CC[C@H]3[C@@H]3CCc4cc(O)ccc4[C@H]32)cc1 [Exemple 18]	16	–	–	–	–
